Experimental data taken from article PMC8533333, “Melatonin Analogues Potently Inhibit MAO-B and Protect PC12 Cells against Oxidative Stress” (Antioxidants, 2021).

Legend:
[1] = target: T1, Human recombinant MAO-B (hMAO-B) (Homo sapiens, UniProt P27338); experiment: MAO-B enzyme assay (Amplex Red, resorufin fluorescence); format: biochemical; conditions: for inhibition at 10 µM: single dose 10 µM
T1 construct: purchased Sigma Aldrich; host or cells: insect cells
T1 sequence (P27338 1-520): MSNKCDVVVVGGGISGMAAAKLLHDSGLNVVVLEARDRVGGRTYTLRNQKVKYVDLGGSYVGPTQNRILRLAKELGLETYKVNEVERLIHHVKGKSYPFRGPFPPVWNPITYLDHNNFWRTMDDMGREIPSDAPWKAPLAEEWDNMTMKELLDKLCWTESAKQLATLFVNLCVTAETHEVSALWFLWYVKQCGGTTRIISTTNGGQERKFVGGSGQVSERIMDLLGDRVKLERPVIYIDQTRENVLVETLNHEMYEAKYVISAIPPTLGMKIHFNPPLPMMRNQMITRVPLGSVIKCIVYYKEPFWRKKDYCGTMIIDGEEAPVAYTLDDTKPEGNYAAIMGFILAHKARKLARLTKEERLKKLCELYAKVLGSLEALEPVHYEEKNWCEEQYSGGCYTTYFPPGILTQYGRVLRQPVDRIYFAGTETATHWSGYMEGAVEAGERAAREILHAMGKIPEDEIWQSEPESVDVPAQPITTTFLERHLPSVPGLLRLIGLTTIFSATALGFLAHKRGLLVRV
Method: Biological evaluation of the synthesized melatonin derivatives over both MAO-A and MAO-B was performed as reported previously. A detailed description of the protocol is in the Supplementary Materials.
First, the synthesized melatonin analogues (3a–x) were biologically evaluated over an MAO-B recombinant enzyme. The experiment was performed using Amplex® Red reagent technology. This technology offers quantitative enzyme activity sensitive detection, a wider dynamic range, and fluorescence emission outside the range of compound autofluorescence (if any). The Amplex® Red reagent is a colorless substrate that reacts with H2O2 in a 1:1 stoichiometry to produce a highly fluorescent resorufin; therefore, the induced inhibitory effects of the melatonin analogues over MAO-B were examined via spectrophotometry where the fluorescence rate of resorufin dye formation was measured.
Accordingly, compounds 3n, 3r, and 3u–w were further tested to determine their IC50 values over MAO-B in triplicate from the dose–response inhibition curves using Sigma-Plot software 13.0.
6. Materials and methods of monoamine oxidase (MAO) enzyme assay
The inhibitory activity of MAO-A, B enzyme of the compounds was evaluated based on previously described method. The MAO activity was measured in relative fluorescence units (RFU) evoked by peroxidase-catalyzed oxidation of Amplex Red® to resorufin, in which H2O2 generated by MAO reaction was used as the […]. Human recombinant MAO-A (hMAO-A) and MAO-B (hMAO-B) enzyme expressed in insect cells were obtained from Sigma Aldrich. The 2 μL of test compound in DMSO (final concentration: 1 nM – 10 μM) was treated with 98 μL of hMAO enzyme solution in 50 mM sodium phosphate buffer (pH 7.4, final protein amounts: ~1.25 μg protein/well for MAO-A and ~2.5 μg protein/well for MAO -B) on 96-well black plate and incubated for 15 min at 37 °C. Then 100 μL of reaction working solution which is mixed solution of 400 μM Amplex Red® (Cayman, final concentration: 200 μM), 2 U/mL horseradish peroxidase ( Sigma-Aldrich, final concentration: 1 U/mL) and 2 mM substrate ( p-tyramine for MAO -A, benzylamine for MAO -B, Sigma-Aldrich, final concentration: 1 mM) in 50 mM sodium phosphate buffer (pH 7.4) were added and incubated for 20 min at 37 °C in the dark. The fluorescent intensity was quantified using a microplate reader (SpectraMax®i3, Molecular Device) with an excitation at 545 nm and an emission at 590 nm. The 50% inhibitory concentrations (IC50) of compounds were determined as the mean ± S.E.M. in triplicate from the dose-response inhibition curves using SigmaPlot® 13.0. […]

Row | Compound | inhibition at 10 µM [1] | melting point | Selectivity Index (SI) ([1]; IC50 (MAO-A)/IC50 (MAO-B))
1 | O=C(Nc1ccc2[nH]ccc2c1)c1cc([N+](=O)[O-])cc([N+](=O)[O-])c1 [3e, N-(1H-indol-5-yl)-3,5-dinitrobenzamide] | 2.75 ± 0.2% |  | 
2 | O=C(Nc1ccc2[nH]ccc2c1)c1cccc([N+](=O)[O-])c1 [3f, N-(1H-indol-5-yl)-3-nitrobenzamide] | 54.25 ± 0.37% | 214 to 215 °C | 
3 | O=C(Nc1ccc2[nH]ccc2c1)c1ccc([N+](=O)[O-])cc1 [3g, N-(1H-indol-5-yl)-4-nitrobenzamide] | 61 ± 0.69% | 262 to 264 °C | 
4 | O=C(Nc1ccc2[nH]ccc2c1)c1ccc(F)cc1C(F)(F)F [3l, 4-Fluoro-N-(1H-indol-5-yl)-2-(trifluoromethyl)benzamide] | 1.49 ± 0.26% | 153 to 154 °C | 
5 | CC(C)(C)c1ccc(C(=O)Nc2ccc3[nH]ccc3c2)cc1 [3q, 4-(Tert-butyl)-N-(1H-indol-5-yl)benzamide] | 50.01 ± 0.04% | 189 to 190 °C | 
6 | O=C(Nc1ccc2[nH]ccc2c1)c1cccc(OC(F)(F)F)c1 [3s, N-(1H-indol-5-yl)-3-(trifluoromethoxy)benzamide] | 68.34 ± 0.25% | 130 to 132 °C | 
7 | O=C(Nc1ccc2[nH]ccc2c1)c1ccc(OC(F)(F)F)cc1 [3t, N-(1H-indol-5-yl)-4-(trifluoromethoxy)benzamide] | 63.23 ± 0.45% | 195 to 196 °C | 
8 | C#CCN[C@@H]1CCc2ccccc21 [rasagiline, reference compound] |  |  | > 50

Continued, values first:

Row | inhibition at 10 µM [1] | melting point | Selectivity Index (SI) ([1]; IC50 (MAO-A)/IC50 (MAO-B)) | Compound
9 | 14.9 ± 0.8% |  |  | O=C(Nc1ccc2[nH]ccc2c1)c1ccccc1 [3a, N-(1H-indol-5-yl)benzamide]
10 | 0.27 ± 0.81% | 231 to 233 °C |  | O=C(Nc1ccc2[nH]ccc2c1)c1ccccc1Br [3b, 2-Bromo-N-(1H-indol-5-yl)benzamide]
11 | 37.1 ± 0.7% | 209 to 210 °C |  | O=C(Nc1ccc2[nH]ccc2c1)c1ccc(Br)cc1 [3c, 4-Bromo-N-(1H-indol-5-yl)benzamide]
12 | 22.9 ± 0.7% | 161 to 162 °C |  | O=C(Nc1ccc2[nH]ccc2c1)c1ccc(Cl)cc1Cl [3d, 2,4-Dichloro-N-(1H-indol-5-yl)benzamide]
13 | -0.02 ± 0.26% | 236 to 237 °C |  | O=C(Nc1ccc2[nH]ccc2c1)c1c(F)cccc1F [3h, 2,6-Difluoro-N-(1H-indol-5-yl)benzamide]
14 | 35.3 ± 0.76% | 166 to 168 °C |  | O=C(Nc1ccc2[nH]ccc2c1)c1cccc(F)c1 [3i, 3-Fluoro-N-(1H-indol-5-yl)benzamide]
15 | 58.3 ± 1.02% |  |  | O=C(Nc1ccc2[nH]ccc2c1)c1ccc(F)cc1 [3j, 4-Fluoro-N-(1H-indol-5-yl)benzamide]
16 | 37.86 ± 0.33% | 179 to 181 °C |  | O=C(Nc1ccc2[nH]ccc2c1)c1ccccc1F [3k, 2-Fluoro-N-(1H-indol-5-yl)benzamide]
17 | 8.33 ± 0.59% | 188 to 189 °C |  | N#Cc1cccc(C(=O)Nc2ccc3[nH]ccc3c2)c1 [3m, 3-Cyano-N-(1H-indol-5-yl)benzamide]
18 | 2.39 ± 0.31% |  |  | O=C(Nc1ccc2[nH]ccc2c1)c1ccccc1Cl [3o, 2-Chloro-N-(1H-indol-5-yl)benzamide]
19 | 57.98 ± 0.07% |  |  | O=C(Nc1ccc2[nH]ccc2c1)c1ccc(Cl)cc1 [3p, 4-Chloro-N-(1H-indol-5-yl)benzamide]
20 | 0.89 ± 0.31% | 221 to 223 °C |  | O=C(Nc1ccc2[nH]ccc2c1)c1c(Cl)cccc1Cl [3x, 2,6-Dichloro-N-(1H-indol-5-yl)benzamide]
